The results in this text go back to patent US10442788B2, “Hepatitis B antiviral agents” (ENANTA PHARMACEUTICALS, INC., priority 2015, dated 2019).

The EC50 is the concentration that produces a half-maximal response.

Structures are written as SMILES.

In this test the test system is HBV. As to the kind of experiment: HepAD38 antiviral assay: reduction of viral product accumulation (virion DNA by qPCR, HBsAg or HBeAg by ELISA). The note with it: Hepatitis B virus, 120 h; HepAD38 cells, five days after compound addition; 50% reduction of viral product accumulation relative to no drug controls; read-out: HepAD38 EC50. Format: cell-based. The procedure: Methods: HepAD38 cells are maintained as previously reported (Ladner et al, Antimicrob. Agents Chemother. 1997, […], 1715). Briefly, cells are passaged upon attaining confluency in DMEM/F12 media in the presence of 10% FBS, Penn/Strep, 250 μg/mL G418, and 1 ug/ml tetracycline. Novel compounds are screened by first washing cells three times with PBS to remove tetracycline, and plating in 96 well plates at 35,000 cells/well. Compounds dissolved in DMSO are then diluted 1:200 into wells containing cells. Five days after compound addition, material is harvested for analysis. For an extended 8 day analysis, cells are plated and treated as described above, but media and compound are refreshed on d2 and d5 post initial treatment.
On harvest day, virion DNA is obtained by lysing with Sidestep Lysis and Stabilization Buffer and then quantified via quantitative real time PCR. Commercially available ELISA kits are used to quantitate the viral proteins HBsAg (Alpco) or HbeAg (US Biological) by following the manufacturer's recommended protocol after diluting samples to match the linear range of their respective assays. Irrespective of readout, compound concentrations that reduce viral product accumulation in the cell lysates or supernatants by 50% relative to no drug controls (EC50) are reported; EC50 ranges are as follows: A<1 μM; B 1-10 μM; C>10 μM.
For orientation: Quantitative PCR measures a nucleic acid by following its amplification.
Consider `COC(=O)NC(C)CCNS(=O)(=O)c1cc(-c2nc(-c3ccc(Br)c(F)c3)c[nH]2)ccc1Cl` (stereo not shown) [Example 188], for which the EC50 was less than 1000 nM.
The result for `COC(=O)NCCCN(C)S(=O)(=O)c1cc(-c2nc(-c3ccc(Br)c(F)c3)c[nH]2)ccc1Cl` [Example 190] reads less than 1000 nM; that for `N#CCCCCNS(=O)(=O)c1cc(-c2nc(-c3ccc(Br)c(F)c3)c[nH]2)ccc1Cl` [Example 191], less than 1000 nM.
The result for `COC(=O)NC1(C(=O)NCCCNS(=O)(=O)c2cc(-c3nc(-c4ccc(Br)c(F)c4)c[nH]3)ccc2Cl)CC1` [Example 192] reads less than 1000 nM; that for `O=C(CCCNS(=O)(=O)c1cc(-c2nc(-c3ccc(Br)c(F)c3)c[nH]2)ccc1Cl)Nc1ccccc1` [Example 194], less than 1000 nM; that for `O=S(=O)(c1cc(-c2nc(-c3ccc(Br)c(F)c3)c[nH]2)ccc1Cl)N1CCN(c2cccnc2)CC1` [Example 195], less than 1000 nM.
For `O=S(=O)(c1cc(-c2nc(-c3ccc(Br)c(F)c3)c[nH]2)ccc1Cl)N1CCN(c2ccncc2)CC1` [Example 196], the EC50 was less than 1000 nM.
The result for `O=S(=O)(c1cc(-c2nc(-c3ccc(F)c(Br)c3)c(F)[nH]2)ccc1Cl)N1CCC(O)CC1` [Example 197] reads less than 1000 nM.
The result for `CC(C)(C)OC(=O)N[C@H]1C[C@H](NS(=O)(=O)c2cc(-c3nc(-c4ccc(Br)c(F)c4)c[nH]3)ccc2Cl)C1` [Example 198] reads less than 1000 nM; that for `CC(C)(C)OC(=O)NCC1CCN(S(=O)(=O)c2cc(-c3nc(-c4ccc(Br)c(F)c4)c[nH]3)ccc2Cl)C1` (stereo not shown) [Example 199], less than 1000 nM.
The result for `CN(C)CC(=O)NCCCNS(=O)(=O)c1cc(-c2nc(-c3ccc(Br)c(F)c3)c[nH]2)ccc1Cl` [Example 200] reads 1000 to 10000 nM.
Turning to `COC(=O)NCC(=O)NCCCNS(=O)(=O)c1cc(-c2nc(-c3ccc(Br)c(F)c3)c[nH]2)ccc1Cl` [Example 201], the concentration giving a half-maximal response (EC50) fell in the range of 1000 to 10000 nM.
The same measure for `COc1ccc(-c2c[nH]c(-c3ccc(Cl)c(S(=O)(=O)N4CCC(O)CC4)c3)n2)cc1Cl` [Example 202]: more than 10000 nM; for `[2H]C([2H])([2H])Oc1cccc(-c2c[nH]c(-c3ccc(Cl)c(S(=O)(=O)N4CCC(O)CC4)c3)n2)c1` [Example 203]: more than 10000 nM; for `[2H]C([2H])([2H])Oc1cc(-c2c[nH]c(-c3ccc(Cl)c(S(=O)(=O)N4CCC(O)CC4)c3)n2)ccc1F` [Example 204]: less than 1000 nM.
The result for `O=S(=O)(c1cc(-c2nc(-c3ccc(Br)c(F)c3)c[nH]2)ccc1Cl)N1CCN(c2cc(F)ccn2)CC1` [Example 205] reads less than 1000 nM; that for `O=C(Nc1ccccc1)N1CCN(S(=O)(=O)c2cc(-c3nc(-c4ccc(Br)c(F)c4)c[nH]3)ccc2Cl)CC1` [Example 206], more than 10000 nM.
The same measure for `O=P(O)(O)OC1CCN(S(=O)(=O)c2cc(-c3nc(-c4ccc(F)c(Br)c4)c[nH]3)ccc2Cl)CC1` [Example 207]: 1000 to 10000 nM.
Take `C[C@@H]1CN(S(=O)(=O)c2cc(-c3ncc(-c4ccc(Br)c(F)c4)[nH]3)ccc2Cl)CC[C@H]1O` [Example 208]: the EC50 was less than 1000 nM.
The same measure for `CC1CC(O)CCN1S(=O)(=O)c1cc(-c2ncc(-c3ccc(Br)c(F)c3)[nH]2)ccc1Cl` (stereo not shown) [Example 209]: less than 1000 nM.
The same measure for `CC(C)(O)C1CN(S(=O)(=O)c2cc(-c3ncc(-c4ccc(Br)c(F)c4)[nH]3)ccc2Cl)C1` [Example 210]: less than 1000 nM; for `O=S(=O)(N[C@H]1C[C@@H](O)C1)c1cc(-c2ncc(-c3ccc(Br)c(F)c3)[nH]2)ccc1Cl` [Example 211]: less than 1000 nM; for `O=S(=O)(N[C@H]1CC[C@H](O)CC1)c1cc(-c2ncc(-c3ccc(Br)c(F)c3)[nH]2)ccc1Cl` [Example 212]: less than 1000 nM.
The result for `O=S(=O)(NC[C@H](O)CO)c1cc(-c2ncc(-c3ccc(Br)c(F)c3)[nH]2)ccc1Cl` [Example 213] reads less than 1000 nM.
As to `O=S(=O)(NC[C@@H](O)CO)c1cc(-c2ncc(-c3ccc(Br)c(F)c3)[nH]2)ccc1Cl` [Example 214], the EC50 is less than 1000 nM.
The result for `O=S(=O)(NCCCCc1nnn[nH]1)c1cc(-c2nc(-c3ccc(Br)c(F)c3)c[nH]2)ccc1Cl` [Example 215] reads more than 10000 nM; that for `COc1cc(-c2c[nH]c(-c3ccc(Cl)c(S(=O)(=O)N4CCC(O)CC4)c3)n2)ccc1Cl` [Example 216], less than 1000 nM.
The same measure for `[2H]C([2H])([2H])Oc1ccc(-c2c[nH]c(-c3ccc(Cl)c(S(=O)(=O)N4CCC(O)CC4)c3)n2)cc1` [Example 217]: 1000 to 10000 nM.
The same measure for `O=S(=O)(c1cc(-c2nc(-c3ccc(Br)c(F)c3)c[nH]2)ccc1Cl)N1CCN(c2ccc(F)cn2)CC1` [Example 219]: less than 1000 nM; for `O=S(=O)(c1cc(-c2nc(-c3ccc(Br)c(F)c3)c[nH]2)ccc1Cl)N1CCC(c2ccccn2)CC1` [Example 220]: less than 1000 nM.
For the compound `O=S(=O)(c1cc(-c2nc(-c3ccc(Br)c(F)c3)c[nH]2)ccc1Cl)N1CC=C(c2ccccn2)CC1` [Example 221], the EC50 is 1000 to 10000 nM.
The same measure for `O=S(=O)(c1cc(-c2nc(-c3ccc(Br)c(F)c3)c[nH]2)ccc1Cl)N1CCN(S(=O)(=O)C2CC2)CC1` [Example 222]: more than 10000 nM; for `O=S(=O)(NC1CC(O)C1)c1cc(-c2ncc(-c3ccc(Br)c(F)c3)[nH]2)ccc1Cl` (stereo not shown) [Example 223]: 1000 to 10000 nM; for `CC(C)(O)CNS(=O)(=O)c1cc(-c2ncc(-c3ccc(Br)c(F)c3)[nH]2)ccc1Cl` [Example 224]: less than 1000 nM.
The same measure for `CC(C)(O)CCNS(=O)(=O)c1cc(-c2ncc(-c3ccc(Br)c(F)c3)[nH]2)ccc1Cl` [Example 225]: less than 1000 nM; for `O=S(=O)(c1cc(-c2ncc(-c3ccc(Br)c(F)c3)[nH]2)ccc1Cl)N1CCC[C@H](O)C1` [Example 226]: less than 1000 nM; for `O=S(=O)(N[C@H]1CC[C@@H](O)CC1)c1cc(-c2ncc(-c3ccc(Br)c(F)c3)[nH]2)ccc1Cl` [Example 227]: less than 1000 nM.
The same measure for `O=S(=O)(c1cc(-c2ncc(-c3ccc(Br)c(F)c3)[nH]2)ccc1Cl)N1C[C@@H](O)[C@@H](O)C1` [Example 228]: less than 1000 nM; for `O=S(=O)(c1cc(-c2ncc(-c3ccc(Br)c(F)c3)[nH]2)ccc1Cl)N1C[C@@H](O)[C@H](O)C1` [Example 229]: less than 1000 nM.
Turning to `O=S(=O)(c1cc(-c2ncc(-c3ccc(Br)c(F)c3)[nH]2)ccc1Cl)N1CC[C@H](O)[C@H](O)C1` [Example 230], the EC50 is less than 1000 nM.
As for `O=S(=O)(c1cc(-c2ncc(-c3ccc(Br)c(F)c3)[nH]2)ccc1Cl)N1CC[C@H](O)[C@@H](O)C1` [Example 231], the EC50 is less than 1000 nM.
The result for `O=S(=O)(c1cc(-c2nc(-c3ccc(Br)c(F)c3)c[nH]2)ccc1Cl)N1CCCC[C@H](O)C1` [Example 232] reads less than 1000 nM; that for `O=S(=O)(c1cc(-c2nc(-c3ccc(Br)c(F)c3)c[nH]2)ccc1Cl)N1CCCC[C@@H](O)C1` [Example 233], less than 1000 nM.
The same measure for `O=S(=O)(c1cc(-c2nc(-c3ccc(Br)c(F)c3)c[nH]2)ccc1Cl)N1CCC[C@@H](O)CC1` [Example 234]: less than 1000 nM.
`O=S(=O)(c1cc(-c2nc(-c3ccc(Br)c(F)c3)c[nH]2)ccc1Cl)N1CCC[C@H](O)CC1` [Example 235]: the EC50 is less than 1000 nM.
The same measure for `COC(=O)NCCCN(CCCO)S(=O)(=O)c1cc(-c2nc(-c3ccc(Br)c(F)c3)c[nH]2)ccc1Cl` [Example 236]: less than 1000 nM.
